From patent US8420630B2 (Boehringer Ingelheim Pharma GmbH & Co. KG, priority 2001, dated 2013)
Structures can show the parent of a compound that is named as a salt.

biological target: T1, CDK1/cyclinB1 (Homo sapiens, UniProt P06493); assay: Cyclin B1-CDK1 kinase inhibition test; assay type: biochemical; conditions: not given
T1 construct: made in house; host or cells: High Five insect cells (Trichoplusia ni), baculovirus coinfection
Procedure: CDK4) were cloned by standard methods using RT-PCR, and cloned into a transfer vector (cyclin in pAcG2T made by Pharmingen, CDKs in p2Bac made by Invitrogen) for the baculovirus system. […] After thawing the cells were resuspended in lysing buffer (50 mM HEPES pH 7.5, 10 mM MgCl2, 1 mM DTT, 5 μg/ml leupeptin, 5 μg/ml aprotinin, 100 μM NaF, 100 μM PMSF, 10 mM β-glycerolphosphate, 100 μM Na3VO4, 30 mM nitrophenylphosphate, 17.5 ml of lysing buffer per 10^8 cells) and incubated on ice for 30 min. […] Cyclin D1-CDK4 was purified by means of a GST-tag on cyclin D1 and then using glutathione beads (total protein about 0.2 mg/ml). All the kinase tests were carried out in 96-well microtitre plates (Greiner PS) in a final volume of 60 μl. […] As a negative control the kinase reaction was carried out in the absence of the substrate histone H1. As a positive control the kinase reaction was carried out in the absence of a test substance. As an internal control 30 μM and 300 μM (final concentration) of the kinase inhibitor olomoucin (Alexis) were used. […] The kinase reaction is started by the addition of 10 μl of ATP mix (0.045 mM ATP, 0.5 μCi ^33P-ATP in kinase buffer) and incubated for 30 min at 30° C. and 600 rpm in a shaking incubator. After incubation the plates were placed on ice and the proteins were precipitated by the addition of 125 μl of ice-cold 5% trichloroacetic acid. After 15 min on ice the precipitates were transferred onto Packard Unifilter 96 GF/B plates with the Packard Harvester System, and collected by vacuum filtration. The precipitates were washed 4 times with dist. H2O at ambient temperature. The filter plates were then dried at 60° C. and 50 μl of scintillation liquid were added to each well (Ultima Gold, Packard). The plate was sealed up with Sealing Tape and after 1 h measured in a scintillation measuring apparatus (Micro Beta made by Wallac).

T1 sequence (P06493 whole entry): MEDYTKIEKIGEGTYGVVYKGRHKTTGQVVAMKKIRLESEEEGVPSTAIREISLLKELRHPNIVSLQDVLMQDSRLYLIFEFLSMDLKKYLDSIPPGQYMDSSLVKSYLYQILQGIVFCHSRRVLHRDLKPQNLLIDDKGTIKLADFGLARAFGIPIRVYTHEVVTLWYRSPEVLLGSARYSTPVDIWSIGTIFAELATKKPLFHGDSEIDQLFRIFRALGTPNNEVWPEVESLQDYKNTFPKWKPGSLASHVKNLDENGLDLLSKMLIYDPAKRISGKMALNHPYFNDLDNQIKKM
T1 sequence (P14635 whole entry partner): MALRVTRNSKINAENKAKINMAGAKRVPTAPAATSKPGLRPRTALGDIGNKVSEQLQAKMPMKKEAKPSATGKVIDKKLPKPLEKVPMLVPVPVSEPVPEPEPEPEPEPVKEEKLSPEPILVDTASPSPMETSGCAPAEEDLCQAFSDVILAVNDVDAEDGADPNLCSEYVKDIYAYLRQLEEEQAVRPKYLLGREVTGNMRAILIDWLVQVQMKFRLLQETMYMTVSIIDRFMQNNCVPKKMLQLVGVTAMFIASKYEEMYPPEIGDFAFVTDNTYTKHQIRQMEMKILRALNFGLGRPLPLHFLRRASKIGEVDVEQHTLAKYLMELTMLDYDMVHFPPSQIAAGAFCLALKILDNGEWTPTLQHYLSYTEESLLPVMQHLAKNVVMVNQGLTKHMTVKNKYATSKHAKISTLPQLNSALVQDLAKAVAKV

| SMILES | IC50 [µM] |
| --- | --- |
| CN1CCC(CNc2nc(Nc3ccc(Cl)c(Cl)c3)ncc2C(F)(F)F)CC1 [Example 1(030)] | < 0.1 |

same assay, conditions: CDK1 tests (Example 13); recombinant cyclin B1/CDK1, substrate histone H1; read-out: CDK1/cyclinB1 IC50 value

| SMILES | IC50 [µM] |
| --- | --- |
| CC(=O)NCCNc1nc(Nc2ccc(NS(=O)(=O)c3ccccc3)cc2)ncc1C(F)(F)F [Example 10(016), N-(2-[2-(4-phenylsulphonylamido-phenylamino)-5-trifluoromethyl-pyrimidin-4-ylamino]-ethyl)-acetamide] | < 0.1 |
| O=C1CCCN1CCCNc1nc(Nc2cccc(Br)c2)ncc1C(F)(F)F [Example 1(047), 2-(3-bromo-phenylamino)-4-(3-(2-oxo-pyrrolidin-1-yl)-propyl-1-amino)-5-trifluoromethyl-pyrimidine] | < 0.1 |
| NC1CCCC(Nc2nc(Nc3ccc(Cl)cc3)ncc2[N+](=O)[O-])C1 (stereo not shown) [Example 1(034), 2-(4-chloro-phenylamino)-4-(3-amino-cyclohexylamino)-5-nitro-pyrimidine] | < 0.1 |
| OCCCCCNc1nc(Nc2ccc(Cl)c(Cl)c2)ncc1C(F)(F)F [Example 1(045), 2-(3,4-dichloro-phenylamino)-4-(5-hydroxy-1-pentylamino)-5-trifluoromethyl-pyrimidine] | < 0.1 |
| CC(=O)NCCNc1nc(Nc2ccc(Cl)c(Cl)c2)ncc1Br [Example 2(002), 2-(3,4-dichlorophenylamino)-4-(2-acetylamino-ethylamino)-5-bromo-pyrimidine-hydrochloride] | < 0.1 |
| FC(F)(F)c1cnc(Nc2cc(Cl)cc(Cl)c2)nc1N1CCc2[nH]cnc2C1 [Example 1(014), 2-(3,5-dichlorophenylamino)-4-(1,4,6,7-tetrahydro-imidazo[4,5-c]pyridin-5-yl)-5-trifluoromethyl-pyrimidine] | < 0.1 |
| COCC(=O)NCCCNc1nc(Nc2ccc(C(N)=O)cc2)ncc1C(F)(F)F [Example 7(028), 4-[4-(3-(2-methoxy-acetamino)-propylamino)-5-trifluoromethyl-pyrimidin-2-ylamino]-benzamide] | < 0.1 |
| CC(CC(=O)O)Nc1nc(Nc2ccc(Cl)c(Cl)c2)ncc1C(F)(F)F (stereo not shown) [Example 1(388), 2-(3,4-dichlorophenylamino)-4-(1-carboxy-2-propylamino)-5-trifluoromethyl-pyrimidine] | < 0.1 |
| O=[N+]([O-])c1ccccc1CNc1nc(Nc2ccc(Cl)c(Cl)c2)ncc1C(F)(F)F [Example 1(016), 2-(3,4-dichloro-phenylamino)-4-(2-nitrobenzylamino)-5-trifluoromethyl-pyrimidine] | < 0.1 |
| NCCCNc1nc(Nc2cccc(Br)c2)ncc1C(F)(F)F [Example 1(024), 2-(3-bromo-phenylamino)-4-(3-amino-propylamino)-5-trifluoromethyl-pyrimidine] | < 0.1 |
| FC(F)(F)c1cnc(Nc2ccc(Cl)c(Cl)c2)nc1NCCCN1CC2C=CC1C2 (stereo not shown) [Example 1(009), 2-(3,4-dichlorophenylamino)-4-(3-(2-aza-bicyclo[2.2.1]hept-5-en-2-yl)-propylamino)-5-trifluoro-methyl-pyrimidine] | < 0.1 |
| CC(=O)NCCNc1nc(Nc2ccc(C(=O)O)cc2)ncc1C(F)(F)F [Example 9(001), 4-[4-(2-acetylamino-ethylamino)-5-trifluoromethyl-pyrimidin-2-ylamino]-benzoic acid] | < 0.1 |
| CC(=O)NCCNc1nc(Nc2cccc(Cl)c2)ncc1C(F)(F)F [Example 2(009), 2-(3-chloro-phenylamino)-4-(2-acetylamino-ethylamino)-5-trifluoromethyl-pyrimidine] | < 0.1 |
| CC(=O)NCCNc1nc(Nc2ccc(Br)c(Cl)c2)ncc1C(F)(F)F [Example 2(014), 2-(4-bromo-3-chloro-phenylamino)-4-(2-acetylamino-ethylamino)-5-trifluoromethyl-pyrimidine] | < 0.1 |
| O=C1CCCN1CCCNc1nc(Nc2ccc3ccccc3c2)ncc1C(F)(F)F [Example 1(003), 2-(2-naphthylamino)-4-(3-(2-oxo-pyrrolidin-1-yl)-propyl-1-amino)-5-trifluoromethyl-pyrimidine] | < 0.1 |
| O=C1CCCN1CCCNc1nc(Nc2ccc3cn[nH]c3c2)ncc1C(F)(F)F [Example 2(038), 1-{3-[2-(1H-Indazol-6-ylamino)-5-trifluoromethyl-pyrimidin-4-ylamino]-propyl}-pyrrolidin-2-one] | < 0.1 |
| CC(=O)NCCNc1nc(Nc2cccc(NS(=O)(=O)c3ccccc3)c2)ncc1C(F)(F)F [Example 10(015), N-(2-[2-(3-phenylsulphonylamido-phenylamino)-5-trifluoromethyl-pyrimidin-4-ylamino]-ethyl)-acetamide] | < 0.1 |

| SMILES | IC50 [µM] |
| --- | --- |
| CC(=O)NCCNc1nc(Nc2ccc(C(N)=O)cc2)ncc1Br [Example 1(663), 4-[4-(2-acetylamino-ethylamino)-5-bromo-pyrimidin-2-ylamino]-benzamide] | < 0.1 |
| NCCCNc1nc(Nc2cccc(Cl)c2)ncc1C(F)(F)F [Example 1(012), 2-(3-chlorophenylamino)-4-(3-aminopropyl-amino)-5-trifluoromethyl-pyrimidine] | < 0.1 |
| NCC1CCC(CNc2nc(Nc3ccccc3)ncc2C(F)(F)F)CC1 (stereo not shown) [Example 1(033), 2-phenylamino-4-(4-aminomethyl-cyclohexylmethylamino)-5-trifluoromethyl-pyrimidine] | < 0.1 |
| O=C1CCCN1CCCNc1nc(Nc2cccc(Cl)c2)ncc1C(F)(F)F [Example 1(067), 2-(3-chloro-phenylamino)-4-(3-(2-oxo-pyrrolidin-1-yl)-propyl-1-amino)-5-trifluoromethyl-pyrimidine] | < 0.1 |
| O=C(O)c1ccc(Nc2ncc([N+](=O)[O-])c(N3CCc4[nH]cnc4C3)n2)cc1 [Example 1(029), 2-(4-carboxy-phenylamino)-4-(1,4,6,7-tetrahydro-imidazo[4,5-c]pyridin-5-yl)-5-nitro-pyrimidine] | < 0.1 |
| CC(=O)NCC1CCCN(c2nc(Nc3ccc(Cl)c(Cl)c3)ncc2C(F)(F)F)C1 (stereo not shown) [Example 1(040), 2-(3,4-dichloro-phenylamino)-4-(3-acetylaminomethyl-piperidin-1-yl)-5-trifluoromethyl-pyrimidine] | < 0.1 |
| NC1CCC(Nc2nc(Nc3ccc(C(=O)O)cc3)ncc2C(F)(F)F)CC1 (stereo not shown) [Example 1(111), 2-(4-carboxyphenylamino)-4-(4-amino-cyclohexylamino)-5-trifluoromethyl-pyrimidine] | < 0.1 |
| CC(=O)NCCNc1nc(Nc2ccc3[nH]ncc3c2)ncc1C(F)(F)F [Example 2(045), N-{2-[2-(1H-Indazol-5-ylamino)-5-trifluoromethyl-pyrimidin-4-ylamino]-ethyl}-acetamide] | < 0.1 |
| CC(=O)NCCNc1nc(Nc2ccc(S(=O)(=O)Nc3ccccn3)cc2)ncc1C(F)(F)F [Example 2(059), N-(2-{2-[4-(Pyridin-2-ylsulphamoyl)-phenylamino]-5-trifluoromethyl-pyrimidin-4-ylamino}-ethyl)-acetamide] | < 0.1 |
| CC(=O)NCCNc1nc(Nc2ccc(C(=O)Nc3ccccn3)cc2)ncc1C(F)(F)F [Example 8(024), 4-[4-(2-acetylamino-ethylamino)-5-trifluoromethyl-pyrimidin-2-ylamino]-N-pyridin-2-yl-benzamide] | < 0.1 |
| CC(=O)NCCNc1nc(Nc2ccc(N)cc2)ncc1C(F)(F)F [Example 2(004), N-{2-[2-(4-amino-phenylamino)-5-trifluoromethyl-pyrimidin-4-ylamino]-ethyl}-acetamide] | < 0.1 |
| CN(C)C1CCC(Nc2nc(Nc3ccc(Cl)c(Cl)c3)ncc2C(F)(F)F)CC1 (stereo not shown) [Example 1(120), 2-(3,4-dichlorophenylamino)-4-(4-dimethylamino-cyclohexylamino)-5-trifluoromethyl-pyrimidine] | < 0.1 |
| FC(F)(F)c1cnc(Nc2ccccc2)nc1N1CCc2[nH]cnc2C1 [Example 1(118), 2-phenylamino-4-(1,4,6,7-tetrahydro-imidazo[4,5-c]pyridin-5-yl)-5-trifluoromethyl-pyrimidine] | < 0.1 |
| CN(C)S(=O)(=O)c1ccc(Nc2ncc(Cl)c(N3CCc4[nH]cnc4C3)n2)cc1 [Example 2(136), 4-[5-Chloro-4-(1,4,6,7-tetrahydro-imidazo[4,5-c]pyridin-5-yl)-pyrimidin-2-ylamino]-N,N-dimethyl-phenylsulphonamide] | < 0.1 |
| CN(C)S(=O)(=O)c1ccc(Nc2ncc(Cl)c(NCCCN3CCCC3=O)n2)cc1 [Example 2(109), 4-{5-Chloro-4-[3-(2-oxo-pyrrolidin-1-yl)-propylamino]-pyrimidin-2-ylamino}-N,N-dimethyl-phenylsulphonamide] | < 0.1 |
| CC(=O)NCCNc1nc(Nc2ccc(S(=O)(=O)N3CCCNCC3)cc2)ncc1C(F)(F)F [Example 2(060), N-(2-{2-[4-(Perhydro-1,4-diazepin-1-sulphonyl)-phenylamino]-5-trifluoromethyl-pyrimidin-4-ylamino}-ethyl)-acetamide] | < 0.1 |
